Series [1] in a line: Moisture absorption and handling under the general conditions. Particulars: for moisture absorption: general conditions. The class given is physicochemical.
A short description of series [2]: Water content of the product of the Examples by the Karl-Fischer method. The class given is physicochemical. The note with it: after water absorption (Examples 1-3) or vacuum drying (Examples 4-5). As to the method: 1 kg of powder of 6-methoxy-2′,3′-dideoxyguanosine with 2.7% (wt %) of water content is laid in a plate flat and placed in the environment with the temperature of 5 degrees centigrade and the humidity of 60% (wt %), is mixed every 1-4 hours, and the required product is obtained after 48 hours.
0.5 kg of powder of 6-methoxy-2′,3′-dideoxyguanosine with 1.5% (wt %) of water content is laid in a plate flat and placed in the environment with the temperature of 15 degrees centigrade and the humidity of 40% (wt %), is mixed every 3-5 hours, and the required product is obtained after 36 hours.
0.5 kg of powder of 6-methoxy-2′,3′-dideoxyguanosine with 3.2% (wt %) of water content is laid in a plate flat and placed in the environment with the temperature of 0 degrees centigrade and the humidity of 90% (wt %), is mixed every 2 hours, and the required product is obtained after 36 hours.
1.5 kg of powder of 6-methoxy-2′,3′-dideoxyguanosine with 60.5% (wt %) of water content is laid in a plate flat and placed in a vacuum drying box, anhydrous calcium chloride is taken as a drying agent, vacuumizing is carried out by a water pump at the temperature of 25 degrees centigrade, decompression drying is further carried out, and the required product is obtained after 48 hours.
1.0 kg of powder of 6-methoxy-2′,3′-dideoxyguanosine with 40.5% (wt %) of water content is laid in a plate flat and placed in a vacuum drying box, phosphorus pentoxide is taken as a drying agent, vacuum decompression drying is carried out at the temperature of 15 degrees centigrade, and the required product is obtained after 38 hours.

A short description of series [3]: Acceleration test inspection at 30 degrees centigrade and humidity 90% (character and water content). The class given is physicochemical. Particulars: for Acceleration Test Inspection, Water Content / Acceleration Test Inspection, Character: 30 degrees centigrade, humidity 90%. The procedure: (§1) Table 1 is a comparison table, wherein, the 6-methoxy-2′,3′-dideoxyguanosine with less than 6% (wt %) of water content is placed in different humidity environments at 5 degrees centigrade for carrying out water-absorbing tests, the products at the corresponding time points are placed in the environment with the temperature of 30 degrees centigrade and the humidity of 90% (wt %) for carrying out the acceleration test inspection, the sampling inspection are carried out at the 15th day, the 30th day and the 60th day respectively, and the inspection indexes comprise the character and the water content.

Series [4] deals with HIV (Human Immunodeficiency Virus). Briefly: Anti-HIV experimental study of the inventors.
For the next series, the system named is hepatitis B virus (HBV). The note with it: reported in Chinese patent CN1493301A; cited from earlier work.
Series [5] is described as follows: Metabolism in plasma to ddG. The class given is in vitro ADME. The note with it: metabolite 2′,3′-dideoxyguanosine (ddG).
A short description of series [6]: Water-absorbing test in different humidity environments at 5 degrees centigrade. The class given is physicochemical. The procedure:
as §1

Another series deals with DHBV DNA replication. Briefly: Suppression of DHBV DNA replication. The note with it: competition with ddCTP.
The mark [7] stands for this setting: product of placement time 14 hours, 15th Day.
Setting [8] is: product of placement time 14 hours, 30th Day.
Where [9] appears, read: product of placement time 14 hours, 60th Day.
Setting [10] is: product of placement time 2 days, 15th Day.
Setting [11] is: product of placement time 2 days, 30th Day.
Where [12] appears, read: product of placement time 2 days, 60th Day.
[13] abbreviates: product of placement time 3 days, 15th Day.
[14] abbreviates: product of placement time 3 days, 30th Day.
The mark [15] stands for this setting: product of placement time 3 days, 60th Day.
Where [16] appears, read: product of placement time 4 days, 15th Day.
Where [17] appears, read: product of placement time 4 days, 30th Day.
The mark [18] stands for this setting: product of placement time 4 days, 60th Day.
The mark [19] stands for this setting: product of placement time 10 days, 15th Day.
[20] abbreviates: product of placement time 10 days, 30th Day.
Where [21] appears, read: product of placement time 10 days, 60th Day.

“Also recorded” adds a separate entry of the source.

Regarding `COc1nc(N)nc2c1ncn2[C@H]1CC[C@@H](CO)O1` [stable 6-methoxy-2′,3′-dideoxyguanosine, 6-methoxy-2′,3′-dideoxyguanosine], the moisture absorption entry in series [1] (stable form, water content 6-30% (wt %)) was “difficult to absorb the moisture”. Moreover, the stability entry in series [1] (stable form, water content 6-30% (wt %), room temperature) is listed as “very stable at room temperature”.
As to `COc1nc(N)nc2c1ncn2[C@H]1CC[C@@H](CO)O1` [Example 2, 6-methoxy-2′,3′-dideoxyguanosine], the “water content of the required product” value in series [2] was 12.5 % (wt %).
Still for that read-out and setting: the figure for `COc1nc(N)nc2c1ncn2[C@H]1CC[C@@H](CO)O1` [Example 3, 6-methoxy-2′,3′-dideoxyguanosine] is 23.2 % (wt %).
As for `COc1nc(N)nc2c1ncn2[C@H]1CC[C@@H](CO)O1` [6-methoxy-2′,3′-dideoxyguanosine], the “Acceleration Test Inspection, Water Content” value in series [3] (product of placement time 1 hour, 15th Day) amounted to 23.4 wt %; in series [3] (product of placement time 1 hour, 30th Day) it was 22.4 wt %; in series [3] (product of placement time 1 hour, 60th Day), 21.8 wt %; in series [3] (product of placement time 2 hours, 15th Day), 22.9 wt %; in series [3] (product of placement time 2 hours, 30th Day) it was 22.1 wt %; in series [3] (product of placement time 2 hours, 60th Day), 21.5 wt %. The “Acceleration Test Inspection, Water Content” value in series [3] (setting [7]) was determined as 22.7 wt %; in series [3] (setting [8]), 22.0 wt %; in series [3] (setting [9]) it was 21.4 wt %; in series [3] (setting [10]), 23.0 wt %; in series [3] (setting [11]) it was 22.5 wt %; in series [3] (setting [12]), 21.6 wt %. Besides, the “Acceleration Test Inspection, Water Content” value is given as 22.1 wt % in series [3] (setting [13]); 21.8 wt % in series [3] (setting [14]); 21.5 wt % in series [3] (setting [15]); 22.9 wt % in series [3] (setting [16]); 21.8 wt % in series [3] (setting [17]); 21.8 wt % in series [3] (setting [18]). For the same compound, the “Acceleration Test Inspection, Water Content” value in series [3] (setting [19]) came to 22.0 wt %; in series [3] (setting [20]), 21.7 wt %; in series [3] (setting [21]), 21.9 wt %. Also, the “Acceleration Test Inspection, Character” value in series [3] (setting [7]), in series [3] (setting [8]), in series [3] (setting [9]), in series [3] (setting [10]), in series [3] (setting [11]) and in series [3] (setting [12]) was “Powder” in each case. Also, the “Acceleration Test Inspection, Character” value in series [3] (setting [13]), in series [3] (setting [14]), in series [3] (setting [15]), in series [3] (setting [16]), in series [3] (setting [17]) and in series [3] (setting [18]) was “Powder” throughout. In addition, the “Acceleration Test Inspection, Character” value in series [3] (setting [19]), in series [3] (setting [20]) and in series [3] (setting [21]) was “Powder” in each case. The character result in series [3] (water content greater than 6% (wt %), summary of Table 1) was “basically kept unchanged”. Further, the anti-HIV activity result in series [4] is listed as “plays the role of fighting against the HIV”. The anti-HBV activity entry in the series on hepatitis B virus (HBV) is listed as “anti-HBV activity”. In addition, in series [1] (water content higher than 30% (wt %)), the “behaviour during the smashing process” value is given as “easy to be bonded into blocks during the smashing process”. Further, in series [1] (water content lower than 6% (wt %)), the moisture absorption result was “easy to absorb the water; also recorded: very easy to absorb moisture and be blocked”. Moreover, the metabolism in plasma entry in series [5] was “rapidly metabolized in plasma to 2′,3′-dideoxyguanosine (ddG)”. The “Water Content When Placed in Different Humidity Environments” value is given as 2.7 wt % in series [6] (Humidity 40%, placement time 0 hour); 4.3 wt % in series [6] (Humidity 40%, placement time 1 hour); 5.4 wt % in series [6] (Humidity 40%, placement time 2 hours); 8.7 wt % in series [6] (Humidity 40%, placement time 14 hours); 12.6 wt % in series [6] (Humidity 40%, placement time 2 days); 21.8 wt % in series [6] (Humidity 40%, placement time 3 days). Further, the “Water Content When Placed in Different Humidity Environments” value in series [6] (Humidity 40%, placement time 4 days) was found to be 22.4 wt %; in series [6] (Humidity 40%, placement time 10 days), 21.8 wt %; in series [6] (Humidity 60%, placement time 0 hour), 2.7 wt %; in series [6] (Humidity 60%, placement time 1 hour), 4.7 wt %; in series [6] (Humidity 60%, placement time 2 hours), 5.7 wt %; in series [6] (Humidity 60%, placement time 14 hours) it was 8.6 wt %. Also, the “Water Content When Placed in Different Humidity Environments” value in series [6] (Humidity 60%, placement time 2 days) was 16.3 wt %; in series [6] (Humidity 60%, placement time 3 days), 22.5 wt %; in series [6] (Humidity 60%, placement time 4 days) it was 23.64 wt %; in series [6] (Humidity 60%, placement time 10 days), 23.5 wt %; in series [6] (Humidity 90%, placement time 0 hour), 2.7 wt %; in series [6] (Humidity 90%, placement time 1 hour) it was 5.1 wt %. Further, the “Water Content When Placed in Different Humidity Environments” value in series [6] (Humidity 90%, placement time 2 hours) stood at 5.8 wt %; in series [6] (Humidity 90%, placement time 14 hours), 8.9 wt %; in series [6] (Humidity 90%, placement time 2 days), 15.9 wt %; in series [6] (Humidity 90%, placement time 3 days), 22.7 wt %; in series [6] (Humidity 90%, placement time 4 days) it was 22.8 wt %; in series [6] (Humidity 90%, placement time 10 days), 21.9 wt %.
On to `COc1nc(N)nc2c1ncn2[C@H]1CC[C@@H](CO)O1` [Example 5, 6-methoxy-2′,3′-dideoxyguanosine], for which, in series [2], the “water content of the required product” value was 18.5 % (wt %).
Still for that read-out and setting: the result for `COc1nc(N)nc2c1ncn2[C@H]1CC[C@@H](CO)O1` [Example 4, 6-methoxy-2′,3′-dideoxyguanosine] reads 22.5 % (wt %); that for `COc1nc(N)nc2c1ncn2[C@H]1CC[C@@H](CO)O1` [Example 1, 6-methoxy-2′,3′-dideoxyguanosine], 23.5 % (wt %).
`Nc1nc2c(ncn2[C@H]2CC[C@@H](COP(=O)(O)OP(=O)(O)OP(=O)(O)O)O2)c(=O)[nH]1` [ddGTP]: the “suppression of DHBV DNA replication” value with DHBV DNA replication is on record as “can selectively compete with the ddCTP for suppressing the DHBV DNA replication”.
